Measured values published in patent publication US8207403B2, “EPSP synthase with high glyphosate resistance and its encoded sequence” (Biotechnology Research Institute The Chinese Academy of …, priority 2007, dated 2012).

Tests used:
[1] = tested on: GR-79 EPSP synthase (5-enolpyruvylshikinate-3-phosphate synthase), SEQ ID NO:1; assay: EPSP synthase enzyme activity and kinetic parameters (inorganic phosphorus release, PEP + S3P); assay type: biochemical
Experimental: (§1) Standard curve of inorganic phosphorus: 10 mM inorganic phosphorus was diluted at 1:10, and 0, 1, 2, 3 . . . 20 μl was taken into 1.5 ml Eppendorf tube and milli-Q purified water was added up to 100 μl with mixing, 0.8 ml MAT solution was added with mixing, and then 100 μl 34% SC solution was quickly added with mixing after 3 min, kept at room temperature for 20 min and then the OD660 value was determined. Repeat the operations three times as above. The standard curve of inorganic phosphorus was achieved using the concentration of inorganic phosphorus as abscissa and the OD660 value as ordinate.
(§2) 1) Enzyme activity test: The crude protein extracted with enzyme was quantified using Coomassie Blue G-250 method (Bradford, 1976). The follow solutions were added into 1.5 ml Eppendorf tube on the ice: 2 μl of 10 mM PEP solution, 2 μl of 10 mM S3P solution, 2 μl of 0.5M HEPES solution, 2 μl of 1 mM (NH4)6MO7O24.4H2O solution and 12 μl of milli-Q purified water with mixing, bathed at 28° C. for 5 min and 1 μl crude enzyme solution was added into each, tube at intervals and timing, 200 μl MAT solution was added after 2 min at 2s intervals again, color development was performed for 3 min, and then 20 μl of 34% SC solution was added at 2s intervals and quickly mixed well, the color was developed for 20 min at room temperature and finally the OD660 value was determined. […]

[2] = tested on: E. coli ER2799 (EPSP synthase defective) carrying pACYCGR-79 (GR-79-ER); assay: Glyphosate tolerance test, strain GR-79-ER; assay type: cell-based; details: M9 liquid medium, 37° C., 36 h, OD600
Experimental: FIG. 1 is a graph of analysis of glyphosate resistance of clone GR-79, wherein: GR-79-ER strain was a strain with glyphosate resistance obtained by cutting the total DNA of soil with enzyme partly, ligating the vector pACYC 184 and introducing into EPSP synthase defective E. coli ER2799 strain (NEB Company).
(§3) The three strains were respectively inoculated into the limited medium M9 with the glyphosate concentration of 0, 20, 50, 80, 100, 120, 150, 200, 250, 300 mM, shaking cultured at 37° C. for 36 h, the absorbance values were determined at OD600 and the figure was plotted with the values.
(§4) E. coli ER2799 (containing new cloned pACYCGR-79 plasmid) was inoculated into M9 liquid medium (Cm^r) with 0-200 mm glyphosate, shaking cultured at 37° C. for 36 h, and the OD600 value of culture was determined. E. coli ER2799 with plasmid without insert was used as negative control.

[3] = tested on: E. coli ER2799 (EPSP synthase defective) with EPSP synthase gene from Agrobacterium sp. cp4 (CP4-ER); assay: Glyphosate tolerance test, positive control strain CP4-ER; assay type: cell-based; details: M9 liquid medium, 37° C., 36 h, OD600
Experimental: CP4-ER strain was a strain with glyphosate resistance obtained by ligating the EPSP synthase gene from Agrobacterium sp. cp4 to the vector pACYC 184 and introducing into EPSP synthase defective E. coli ER2799 strain (NEB Company). It was used as a positive control in the figure.
as §3, §4

[4] = tested on: transgenic tobacco with GR-79 EPSP synthase gene; assay: Glyphosate resistance gradient assay of transgenic tobacco; assay type: in vivo; details: greenhouse
Excerpt: The plant expression vector of EPSP synthase gene with high glyphosate resistance was constructed and transgenic tobaccos were constructed by transformation using leaf disc cocultivation.
(8) The plants were removed when the root systems were large, the solid medium attached was washed off with sterile water, and the plants were transferred into the soil, covered with a glass cover for several days at the beginning days, and the cover was removed after the plants were robust, and then the plants were transferred to the solid medium with 10 mM glyphosate to screen the plant strains with glyphosate resistance;

GR-79 EPSP = GR-79 EPSP (uncultured soil bacterium (soil metagenome), UniProt A5Y5A5); assay: Enzyme activity test of EPSP synthase (inorganic phosphorus release); assay type: biochemical; details: crude enzyme, PEP and S3P substrates, 28° C., OD660
Experimental: as §1, §2

Sequence of GR-79 EPSP (A5Y5A5 entry or part of it): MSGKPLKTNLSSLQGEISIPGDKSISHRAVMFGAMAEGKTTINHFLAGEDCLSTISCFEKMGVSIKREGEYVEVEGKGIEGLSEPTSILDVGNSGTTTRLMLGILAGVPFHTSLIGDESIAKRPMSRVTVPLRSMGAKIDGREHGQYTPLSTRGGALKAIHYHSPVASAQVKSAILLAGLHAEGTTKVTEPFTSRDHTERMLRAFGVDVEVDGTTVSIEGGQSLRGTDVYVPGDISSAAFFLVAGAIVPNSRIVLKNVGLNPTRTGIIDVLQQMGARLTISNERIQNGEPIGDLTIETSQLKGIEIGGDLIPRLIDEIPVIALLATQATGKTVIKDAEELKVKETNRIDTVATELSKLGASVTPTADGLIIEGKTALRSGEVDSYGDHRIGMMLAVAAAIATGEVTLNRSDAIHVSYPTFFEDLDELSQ

Question: `C=C(OP(=O)(O)O)C(=O)O` [PEP] was tested. Which Km ([1]; S3P maintained at 1 mM, PEP 0.05-1.0 mM, Eadie-Hofstee) did it give?
Answer: 79.2 ± 32 µM

Question: With `O=C(O)CNCP(=O)(O)O` [glyphosate] as the molecule, how does the Ki/Km ([1]; Ki (glyphosate) / Km (PEP)) read?
Answer: 2.16

Question: What about the “glyphosate resistance (highest glyphosate concentration allowing growth)” value [2] of the same molecule?
Answer: 250 mM

Question: What about the “glyphosate resistance (highest glyphosate concentration allowing growth)” value [3] of the same molecule?
Answer: 200 mM

Question: And the “growth of transgenic plants in medium with 20 mM glyphosate” value [4]?
Answer: could grow well

B1: GR-79 EPSP: new type I EPSP synthase with high glyphosate resistance, 445 amino acids, SEQ ID NO:1 (protein)
chain: MSHSTSRSPWSKATEYHEALVTPTSNKINGEIFVPGSKSYTNRALIIAALAEGTSTLKGILKSDDSYWCIDALRRLGIKIEVAEETVTIHGCGGKWPVQSAELFIGAAGTIARFLPGALAVAQQGEWIVDGVPQLRERPLKPLVDALTQLGGRIEYLTEHPGLPLRVKGAGLSGQHVRVPGNVSSQFLSGLLIASPYASEAVSIEVINGLVQPSYIAITIQLMREFGAKVEHNEDYSLFKVYPTGYQGRDTILEADASTACYFLSLAALTGGTIQVKNVGYHSYQPDARFIDVLEQMGCEVIKNESFLEVTGPTRLKGGFEVDMKPMSDQALTIGALAPFADAPIRVTNVAHIRAHESDRIAVICSSLQQMGVQVEEREDGFTIYPGQPVGTTLNPHDDHRNAMVFGLLGVKVPHIRIVDPGCVSKTCPAYFEELQKFGIHVEYN
modifications: From a mixture of organisms
Question: B1 was tested. Which enzyme activity (GR-79 EPSP) did it give?
Answer: 10.477 U/mg
